Tested on: peripheral blood leukocytes and neutrophils
Conditions: cyclophosphamide only, 50 mg/kg i.p.; blood at 96 hours; FIG. 4
Experimental: Mice were injected intraperitoneally (i.p.) with 50 mg/kg body weight of cyclophospharnide. The mice were then divided into the following three groups:
2. Mice receiving cyclophosphamide only (control 1); and
3. An additional group of mice received oral administration of water only (control 2).
Ninety six hours after the beginning of receiving the above treatments, blood samples were taken from each of the treated mice. Blood cell counts were carried out in a Coulter counter and differential cell counts were performed on smear preparations stained with May-Grunvald-Giemsa solution.

Question: Which results are given for `O=P1(N(CCCl)CCCl)NCCCO1` (centres unmarked) [cyclophosphamide]?
Answer: number of neutrophils compared to mice without chemotherapeutic treatment (control 2): reduced; number of peripheral blood leukocytes compared to mice without chemotherapeutic treatment (control 2): reduced

Reference: US6537587B1, “Compositions containing muscle-derived active agents” (Can-Fite Biopharma Ltd., priority 1999, dated 2003)
